Laboratory results: article PMC8541992, “Safety, pharmacokinetics, and preliminary efficacy of the PARP inhibitor talazoparib in Japanese patients with advanced solid tumors: phase 1 study” (Investigational New Drugs, 2021)
pIC50: −log10 of the molar value. Read-outs that look alike come from different tables or passages of the source.

Legend:
[1] = test system: Japanese patients with locally advanced or metastatic solid tumors; assay: Phase 1 dose-escalation study: safety (DLTs, TEAEs)
Excerpt: This is an ongoing open-label, non-randomized, phase 1 study of the PARP inhibitor, talazoparib, in Japanese patients with locally advanced or metastatic solid tumors regardless of mutations in DDR-related genes who are resistant to standard therapies or for whom no standard therapy is available (ClinicalTrials.gov NCT03343054). The study comprises a dose-escalation phase and a dose-expansion phase conducted in 8 Japanese centers (Supplementary Fig. 1). The objective of the initial dose-escalation phase was to investigate the safety, PK (single-dose and steady-state), and preliminary antitumor activity of single-agent talazoparib in sequential cohorts of patients with advanced solid malignancies. A modified 3 + 3 dose-escalation scheme was used to determine the recommended phase 2 dose in Japanese patients; up to 3 patients could be enrolled simultaneously in a cohort although sometimes due to logistical or clinical reasons more than 3 but no more than 9 patients were enrolled at each dose level. Successive cohorts of patients received escalating doses of talazoparib on an outpatient basis starting from 0.75 mg/day. To understand the single-dose safety and single-dose PK assessments of talazoparib, a lead-in period preceding the continuous daily doses was included. Data for the dose-escalation phase are reported here (data cut-off January 2020).
Eligible patients were assigned to one of two talazoparib treatment groups (dose levels). Successive cohorts of patients received talazoparib dosed orally at 0.75 mg QD (3 capsules of 0.25 mg) or 1 mg QD (4 capsules of 0.25 mg), with or without food, on an outpatient basis according to a modified 3 + 3 dose-escalation scheme. On Day −7 (lead-in visit), patients received a single dose of talazoparib, followed by continuous daily dosing from Day 1 of each 28-day cycle. Patients continued to receive talazoparib until either disease progression, patient refusal of study treatment, or unacceptable toxicity. Dose modifications were allowed depending on the type and severity of the toxicity encountered. To continue talazoparib, patients were required to have adequate bone marrow functions (hemoglobin ≥8.0 g/dL, absolute neutrophil count ≥1000/mm^3, platelets ≥50,000/mm^3). If grade 1 or grade 2 treatment-related toxicity occurred (other than renal impairment), dose interruption or dose reduction were not required. Daily dosing was paused for grade ≥3 adverse events (AEs) considered related to talazoparib. Supportive care including blood products for hematologic toxicities was allowed as appropriate per local guidance. Talazoparib dosing could resume at the next lower dose level (e.g., from 1.0 mg/day to 0.75 mg/day; 0.75 mg/day to 0.5 mg/day; 0.5 mg/day to 0.25 mg/day) when toxicity resolved to grade 1 or returned to baseline. […]

[2] = test system: non-Japanese patients with advanced breast cancer; design: method as in PMID 32162822; conditions: EMBRACA study; cited from earlier work
[3] = test system: locally advanced or metastatic solid tumors; assay: Phase 1 study: antitumor activity, investigator assessment (RECIST v.1.1); assay type: in vivo, human (Japanese patients)
Protocol: Antitumor activity was evaluated using radiological tumor assessments of all known or suspected disease sites. Imaging could include chest, abdomen, and pelvis computed tomography (CT) or magnetic resonance imaging (MRI) scans. Brain scans and bone scans were performed at baseline if disease was suspected and during the study as appropriate. CT or MRI scans were conducted at baseline (screening visit), on Day 1 (±7 days) of Cycle 2, and every other cycle thereafter, whenever disease progression was suspected, and at the time of withdrawal from treatment (if not performed within 6 weeks). Tumor response (unconfirmed) was assessed using Response Evaluation Criteria in Solid Tumors (RECIST) v.1.1, and included best overall response (complete response [CR], partial response [PR], stable disease [SD], progressive disease [PD], and non-CR/non-PD), objective response, defined as the sum of CR and PR, and overall disease control rate, defined as the sum of CR, PR, SD, and non-CR/non-PD.

[4] = test system: HER2-negative advanced breast cancer with a germline BRCA1/2 mutation; design: method as in PMID 30110579, PMID 30124753; conditions: 1 mg QD versus chemotherapy; 95% CI 0.41 to 0.71, P < 0.001; cited from earlier work
PARP on DNA = test system: PARP on DNA; design: method as in PMID 24356813; conditions: compared with other PARP inhibitors under investigation or approved in Japan; cited from earlier work
[5] = Phase 1 study: single- and multiple-dose plasma pharmacokinetics; assay type: in vivo, human (Japanese patients); conditions: for Rac (ratio of AUCtau after multiple doses/AUCtau after single dose) / Rss (ratio of AUCtau after multiple doses/AUCinf after single dose) / Tmax: median (range); for Cmax / AUC / AUC(0-inf) / Cmin: geometric mean (geometric %CV); for half-life: read-out: t1/2 (terminal half-life) (converted); for AUC: AUCtau = AUC24
Protocol: PK parameters following single- and multiple-dose administration of single-agent talazoparib, included talazoparib area under the plasma concentration-time curve from 0 h to infinity (AUCinf; single dose) and during the dosing interval ([NT], multiple dosing); maximum observed plasma concentration (Cmax); lowest plasma concentration observed during the dosing interval (Cmin); elimination half-life (t1/2); time to Cmax (Tmax); ratio of [NT] after multiple doses/[NT] after single dose (Rac); and ratio of [NT] after multiple doses/AUCinf after single dose (Rss). PK parameters were calculated for each patient using non-compartmental analysis of plasma concentration-time data. Blood samples were collected pre-dose on Day -7, and on Days 1, 15, and 22 of Cycle 1, and Day 1 of Cycles 3 and 4. Post-dose blood samples were also collected at 0.5, 0.75, 1, 2, 3, 4, 6, 8, 10, and 24 h (Day -7 and Day 22 of Cycle 1 only) and at 48, 72, and 96 h (Day -7 only). […] PK parameters and safety data were summarized descriptively.

PARP = test system: PARP; design: method as in PMID 24356813, PMID 31296812; conditions: PARP inhibition; read-out: Half-maximal inhibitory concentration; cited from earlier work
[6] = 0.75 mg QD oral, N = 3, listed as talazoparib
[7] = 1 mg QD oral, N = 6, listed as talazoparib
[8] = plasma, multiple dose 0.75 mg QD oral, N = 3

SMILES: Cn1ncnc1[C@H]1c2n[nH]c(=O)c3cc(F)cc(c23)N[C@@H]1c1ccc(F)cc1 [Talazoparib, talazoparib]
- TEAE leading to death ([1]; 0.75 mg QD oral, N = 3): 0 n (%)
- TEAE leading to death ([1]; 1 mg QD oral, N = 6): 0 n (%)
- Dose reduction due to TEAE ([1]; human, in vivo): 1 (11.1) n (%)
- TEAE leading to death ([1]; total, 0.75 and 1 mg QD, N = 9): 0 n (%)
- Patients discontinued due to anemia [2]: 0.7%
- Patients discontinued due to hematologic toxicities [2]: 1.4%
- Best overall response (unconfirmed): CR ([3]; 0.75 mg QD oral, N = 3): 0 n (%)
- Best overall response (unconfirmed): Non-CR/non-PD ([3]; 0.75 mg QD oral, N = 3): 1 (33.3) n (%)
- Best overall response (unconfirmed): PD ([3]; 0.75 mg QD oral, N = 3): 2 (66.7) n (%)
- Best overall response (unconfirmed): PR ([3]; 0.75 mg QD oral, N = 3): 0 n (%)
- Best overall response (unconfirmed): SD ([3]; 0.75 mg QD oral, N = 3): 0 n (%)
- Disease control (CR + PR + SD + non-CR/non-PD) ([3]; 0.75 mg QD oral, N = 3): 1 (33.3) n (%)
- Objective response (CR + PR) ([3]; 0.75 mg QD oral, N = 3): 0 n (%)
- Best overall response (unconfirmed): CR ([3]; 1 mg QD oral, N = 6): 0 n (%)
- Best overall response (unconfirmed): Non-CR/non-PD ([3]; 1 mg QD oral, N = 6): 1 (16.7) n (%)
- Best overall response (unconfirmed): PD ([3]; 1 mg QD oral, N = 6): 3 (50.0) n (%)
- Best overall response (unconfirmed): PR ([3]; 1 mg QD oral, N = 6): 0 n (%)
- Best overall response (unconfirmed): SD ([3]; 1 mg QD oral, N = 6): 2 (33.3) n (%)
- Disease control (CR + PR + SD + non-CR/non-PD) ([3]; 1 mg QD oral, N = 6): 3 (50.0) n (%)
- Objective response (CR + PR) ([3]; 1 mg QD oral, N = 6): 0 n (%)
- Overall disease control rate (CR + PR + SD + non-CR/non-PD) ([3]; all 9 patients, 0.75 and 1 mg QD, unconfirmed responses): 44.4%
- Best overall response (unconfirmed): CR ([3]; total, 0.75 and 1 mg QD, N = 9): 0 n (%)
- Best overall response (unconfirmed): Non-CR/non-PD ([3]; total, 0.75 and 1 mg QD, N = 9): 2 (22.2) n (%)
- Best overall response (unconfirmed): PD ([3]; total, 0.75 and 1 mg QD, N = 9): 5 (55.6) n (%)
- Best overall response (unconfirmed): PR ([3]; total, 0.75 and 1 mg QD, N = 9): 0 n (%)
- Best overall response (unconfirmed): SD ([3]; total, 0.75 and 1 mg QD, N = 9): 2 (22.2) n (%)
- Disease control (CR + PR + SD + non-CR/non-PD) ([3]; total, 0.75 and 1 mg QD, N = 9): 4 (44.4) n (%)
- Objective response (CR + PR) ([3]; total, 0.75 and 1 mg QD, N = 9): 0 n (%)
- PARP-trapping potential relative to other PARP inhibitors (PARP on DNA): approximately 100 times greater
- Dose proportionality of drug exposure (Cmax and AUC) ([5]; 1 mg dose level compared with 0.75 mg dose level): slightly higher than dose-proportional
- Cmax ([5]; human, plasma, po, 0.75 mg, multiple dose 0.75 mg QD oral, N = 3): 14.4 ng/mL
- half-life ([5]; human, plasma, po, 0.75 mg, plasma, single dose 0.75 mg oral, N = 3, mean (standard deviation)): 56.6 h
- Tmax ([5]; human, plasma, po, 0.75 mg, plasma, single dose 0.75 mg oral, N = 3, read-out: Tmax): 0.98 h
- Cmax ([5]; human, plasma, po, 0.75 mg, single dose 0.75 mg oral, N = 3): 7.24 ng/mL
- Cmax ([5]; human, plasma, po, 1 mg, multiple dose 1 mg QD oral, N = 6): 32.8 ng/mL
- Tmax ([5]; human, plasma, po, 1 mg, plasma, multiple dose 1 mg QD oral, N = 6, read-out: Tmax): 1.03 h
- half-life ([5]; human, plasma, po, 1 mg, plasma, single dose 1 mg oral, N = 6, mean (standard deviation)): 50.7 h
- Tmax ([5]; human, plasma, po, 1 mg, plasma, single dose 1 mg oral, N = 6, read-out: Tmax): 0.97 h
- Cmax ([5]; human, plasma, po, 1 mg, single dose 1 mg oral, N = 6): 13.8 ng/mL
- AUC ([5]; human, plasma, multiple dose 0.75 mg QD oral, N = 3): 127 ng·h/mL
- AUC ([5]; human, plasma, multiple dose 1 mg QD oral, N = 6): 245 ng·h/mL
- AUC(0-inf) ([5]; human, plasma, single dose 0.75 mg oral, N = 3): 108 ng·h/mL
- AUC(0-inf) ([5]; human, plasma, single dose 1 mg oral, N = 6): 200 ng·h/mL
- Cmin [5, 8]: 2.18 (8) ng/mL
- Tmax [5, 8]: 1.02 (1.0–1.9) h
- Cmin ([5]; plasma, multiple dose 1 mg QD oral, N = 6): 3.65 (49) ng/mL
- t1/2 (terminal half-life) ([5]; plasma, single dose 1 mg oral, N = 6, mean (standard deviation)): 50.73 (10.1) h
- Time to peak of mean plasma concentrations ([5]; single or multiple dosing at 0.75 mg QD or 1 mg QD): around 1 h
